Article PMC4300553, “A dynamically coupled allosteric network underlies binding cooperativity in Src kinase” (Nature Communications, 2015)
“Also recorded” adds a separate entry of the source. Like-named read-outs stand apart in the source and are kept apart here.

Legend:
[1] = target: T1, Src kinase domain (Gallus gallus, UniProt P00523); test: Isothermal titration calorimetry, nucleotide binding to Src kinase domain; parameters: species or system chicken; settings: for Kd: isothermal titration calorimetry, 25 °C, 20 mM Tris (pH 8.0), 250 mM NaCl, 10 mM MgCl2; for fold reduction of nucleotide Kd by phosphorylated peptide (pRs1): presence of pRs1
T1 construct: chicken c-Src (residues 251–533); made in house
Description: (§1) Thermodynamic binding parameters for the binding of nucleotides to the Src kinase domain were obtained through isothermal titration calorimetry as published. All experiments were run in a VP-ITC instrument (Microcal) at 25 °C. Proteins were exchanged into 20 mM Tris (pH 8.0), 250 mM NaCl, 10 mM MgCl2 on PD-10 buffer exchange columns (GE Life-science) and diluted to 50–100 μM. Nucleotide stocks (Sigma) were made in buffer to final concentrations between 1 and 3 mM. The heat of binding was measured over the injection of 295 μl of drug in 10-μl steps spaced 300 s apart. Data were fit to a one binding site model using the Origin software package (Microcal). Error bars represent the s.e. of the mean of three independent runs. Representative enthalpograms are shown in Supplementary Fig. 7.
Supplementary Figure 7. Isothermal Titration Calorimetry of Src Binding to AMP-PNP and
ADP (A) Sample titration curve for AMP-PNP binding to the Src kinase domain.(B) Sample
titration curve of ADP binding to the Src kinase domain. All experiments were run in a VP-ITC
instrument (Micro-cal) at 25 °C. Proteins were exchanged into 20 mM Tris (pH 8.0), 250 mM
NaCl, 10 mM MgCl2 on PD-10 buffer exchange columns (GE Life-science), and diluted to 50–
(§2) (1 picture or pasted object on this page, not shown here)

[2] = system: kinase; settings: high Mg2+ concentration; cited from earlier work
Excerpt: Mg^2+ ions accompany ATP and ADP binding in protein kinases, mediating interactions between phosphate groups and conserved Asp and Asn residues (Asp404 and Asn391 in Src). On the other hand, in some kinase-ADP co-crystal structures, Mg^2+ ions are missing. In such cases, the Asp residue of the DFG motif (Asp404 in Src) is almost certainly protonated to prevent negative charge repulsion from the ADP phosphate group only 3.2 Å away (for example, PDB entry 1JBP (ref. [16])).

[3] = target: T1, Src kinase domain; test: Fluorescence anisotropy binding assay, substrate peptide to Src kinase domain (wild type); parameters: species or system chicken; settings: for binding cooperativity of substrates and products (summary): ATP + substrate peptide, ADP + pRS1, Src kinase; for change of Kd of substrate peptide by AMP-PNP: increasing AMP-PNP concentration; for cooperativity of peptide and AMP-PNP binding: Kd at various concentrations of AMP-PNP, 1 μM labelled peptide
Description: After a 1-min equilibration, the increase in the fluorescence anisotropy of the fluorescently labelled ligand was recorded using a Fluoromax 4 (Horiba) and fitted against a quadratic binding equation in Kaleidagraph (Synergy Software) to yield the Kd. Error bars represent the s.e. of the mean of the independent runs.

[4] = system: Ser/Thr kinase PKA; settings: cited from earlier work
Excerpt: The putative allosteric network discussed above may manifest itself in the form of cooperativity between ATP and substrate binding. […] Higher concentrations of AMP-PNP, a non-hydrolysable ATP ana ...

[5] = system: Src T338I; settings: T338I versus wild type
[6] = target: T1, Src kinase domain; test: Kinase activity assay (continuous spectrophotometric), Src kinase domain; type: biochemical, chicken; settings: for Km: 25 nM Src kinase domain, mean ± s.e.m., triplicate
Description: (§3) Mutations were introduced into the chicken c-Src kinase domain by site-directed mutagenesis and verified by DNA sequencing.
(§4) For the continuous spectrophotometric assay[64], 12.5–800 μM ATP Src-optimal substrate peptide ([sequence])[34] was combined with 12.5–800 μM ATP. Concentrations of Src kinase domain used for these assays were 25 nM. The initial velocities were plotted and fit to the Michaelis–Menten equation in Kaleidagraph (Synergy Software) to determine Km.

[7] = target: T2, Hck kinase domain (Homo sapiens, UniProt P08631); test: Kinase activity assay, Hck kinase domain; type: biochemical; settings: increasing substrate-peptide (RS1) concentration; Fig. 3b
T2 construct: human Hck (residues 166–445); made in house
T2 sequence (P08631 247-526): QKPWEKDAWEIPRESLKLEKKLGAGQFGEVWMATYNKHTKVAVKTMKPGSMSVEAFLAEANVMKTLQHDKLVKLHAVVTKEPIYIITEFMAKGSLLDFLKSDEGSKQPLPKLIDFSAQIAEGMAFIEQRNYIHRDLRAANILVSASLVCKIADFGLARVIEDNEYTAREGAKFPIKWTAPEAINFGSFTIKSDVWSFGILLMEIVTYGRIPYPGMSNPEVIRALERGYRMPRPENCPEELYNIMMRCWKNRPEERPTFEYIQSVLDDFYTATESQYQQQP
Description: as §3, §4

[8] = system: Src D404N; test: Nucleotide binding to Src D404N; parameters: species or system chicken; settings: asparagine incapable of chelating Mg2+; Supplementary Fig. 10
Description: as §1
Supplementary Figure 10. Mutations to the allosteric network produce biochemical phenotypes. (A) Location of residues involved in the allosteric network (colored beads). (B) Representative conformations of Src wt and D404N. As shown, Asn404 mimics protonated Asp404 by forming hydrogen bonds with Asp386, and affects the conformation of Arg388, Trp428, and other residues involved in the substrate binding. (C) The effects of D404N mutation to three key residue-residue interaction of the putative allosteric network. (D) Dissociation […]
substrate binding. […]

[9] = system: Src W260A; test: Kinase activity assay, Src W260A; type: biochemical, chicken; settings: W260A versus wild type
Description: as §3, §4

[10] = target: T3, Abl kinase domain (Homo sapiens, UniProt P00519); test: Kinase activity assay, Abl kinase domain; type: biochemical; settings: increasing substrate-peptide (RS1) concentration; Fig. 3b
T3 construct: human c-Abl (residues 229–512); made in house
T3 sequence (P00519 229-512): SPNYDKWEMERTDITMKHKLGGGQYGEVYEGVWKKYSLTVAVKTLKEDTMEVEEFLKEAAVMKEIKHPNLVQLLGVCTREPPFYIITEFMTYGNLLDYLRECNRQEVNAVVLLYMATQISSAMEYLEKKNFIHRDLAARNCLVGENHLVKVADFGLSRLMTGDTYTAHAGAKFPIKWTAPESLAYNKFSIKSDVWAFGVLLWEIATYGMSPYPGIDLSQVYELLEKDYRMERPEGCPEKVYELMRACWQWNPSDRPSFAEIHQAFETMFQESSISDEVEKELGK
Description: as §3, §4

[11] = system: Src 3-domain construct; test: Cooperativity in Src three-domain construct (KM and KD); type: binding; settings: Supplementary Fig. 6
Excerpt: Domain Kinase. (A) The effect of ATP concentration on substrate KM for Src kinase domain and 3-domain construct. (B) The effect of ATP concentration on substrate KM for WT and T338I mutant Src 3-domain construct (C) The effect of peptide concentration on ATP KM for Src kinase domain and 3-domain construct. (D) The effect of substrate concentration on ATP KM for WT and T338I mutant Src 3-domain construct. (E) Dissociation constants Src kinase domain and 3-domain constructs at increasing AMP-PNP concentration. (F) Dissociation constants for WT and T338I mutant Src 3-domain construct. KM values were determined in a kinase activity assay. KD values for the substrate peptides were determined using fluorescence anisotropy at 1 µM labeled peptide. All experiments were performed in triplicate, and data represent mean values ± s.e.m.
as §2

[12] = target: T338I mutant Src 3-domain construct (Gallus gallus, UniProt P00523, T338I); test: Km of ATP and substrate peptide, T338I mutant Src 3-domain construct; type: biochemical; settings: higher Km for ATP, lower Km for substrate peptide
[13] = 100 mM Tris, pH 8.0, 10 mM MgCl2, 25 °C

For `Nc1ncnc2c1ncn2[C@@H]1O[C@H](COP(=O)(O)OP(=O)(O)O)[C@@H](O)[C@H]1O` [ADP], the Kd [1] is given as 45 to 100 µM, the “fold reduction of nucleotide Kd by phosphorylated peptide (pRs1)” value [1] is given as “twofold” and the “ADP release in kinase catalytic cycle” value [2] is given as “slower at high Mg^2+ concentration”. For the same compound, the “binding cooperativity of substrates and products (summary)” value [3] was “positive cooperativity”.

For `Nc1ncnc2c1ncn2[C@@H]1O[C@H](COP(=O)(O)OP(=O)(O)OP(=O)(O)O)[C@@H](O)[C@H]1O` [ATP], the “cooperativity between ATP and substrate binding, PKA” value [4] is given as “positive cooperativity”, the “Km of T338I for ATP relative to wild type” value [5] is given as “twofold higher” and the Km ([6]; 50 μM substrate peptide, read-out: Km for ATP at 50 μM substrate peptide) is given as 54 ± 22 µM. The Km ([6]; 800 μM substrate peptide, read-out: Km for ATP at 800 μM substrate peptide) was 202 ± 21 µM, the “ATP Km versus substrate-peptide concentration, Src” value ([6]; increasing substrate-peptide (RS1) concentration, Fig. 3b) was “increases with increasing substrate-peptide concentration” and the “ATP Km versus substrate-peptide concentration, Hck” value [7] was “increases with increasing substrate-peptide concentration”. The “ATP binding to Src D404N” value [8] was “does not bind ATP favourably”, the “Km of W260A for ATP relative to wild type” value [9] was “two- to fivefold lower” and the “ATP Km versus substrate-peptide concentration, Abl” value [10] was “increases with increasing substrate-peptide concentration”. The “cooperativity of ATP and substrate binding, three-domain construct” value [11] was “negative cooperativity is present”, the “Km of T338I three-domain Src relative to wild type” value [12] was “This relationship holds for three-domain Src” and the “binding cooperativity of substrates and products (summary)” value [3] was “negative cooperativity”. For the same compound, the “Mg2+ dependence of binding and cooperativity” value ([3]; presence vs absence of Mg2+, ionic strength adjusted to 40 mM with NaCl, Supplementary Fig. 9) was “disrupts ATP binding; also recorded: requires the presence of Mg^2+”.

For `Nc1ncnc2c1ncn2[C@@H]1O[C@H](COP(=O)(O)OP(=O)(O)NP(=O)(O)O)[C@@H](O)[C@H]1O` [AMP-PNP], the Kd [1] was 45 to 100 µM and the “fold reduction of nucleotide Kd by phosphorylated peptide (pRs1)” value [1] was “three”.

Work on `CC[C@H](C)[C@H](NC(=O)[C@H](CCC(=O)O)NC(=O)[C@H](CCC(=O)O)NC(=O)[C@H](CCC(=O)O)NC(=O)[C@H](C)N)C(=O)N[C@@H](Cc1ccc(O)cc1)C(=O)NCC(=O)N[C@@H](CCC(=O)O)C(=O)N[C@@H](Cc1ccccc1)C(=O)N[C@@H](C)C(=O)N[C@@H](CCCCN)C(=O)N[C@@H](CCCCN)C(=O)N[C@@H](CCCCN)C(=O)O` [Rs1] yielded a Kd [3] of 37 ± 7 µM, a Kd ([3]; 100 μM ADP, 1 μM fluorescein-labelled peptide, 100 mM Tris, pH 8.0, 10 mM MgCl2, 25 °C, mean ± s.e.m., triplicate, read-out: Kd of substrate peptide at 100 μM ADP) of 17 ± 4 µM and a Kd ([3]; 1,000 μM ADP, 1 μM fluorescein-labelled peptide, 100 mM Tris, pH 8.0, 10 mM MgCl2, 25 °C, mean ± s.e.m., triplicate, read-out: Kd of substrate peptide at 1,000 μM ADP) of 16 ± 2 µM. For the same compound, the “change of Kd of substrate peptide by AMP-PNP” value ([3]; 1 μM fluorescein-labelled peptide, 100 mM Tris, pH 8.0, 10 mM MgCl2, 25 °C, listed as optimal substrate peptide for Src) was “increase the Kd up to fivefold” and the “change of Kd of substrate peptide by AMP-PNP” value ([3]; 1 μM fluorescein-labelled peptide, 100 mM Tris, pH 8.0, 10 mM MgCl2, 25 °C, listed as substrate peptide) was “increases the Kd of substrate peptide fivefold”.

With “GIYWHHY [Rs3, short substrate peptide (GIYWHHY)]” the “cooperativity of peptide and AMP-PNP binding” value [3, 13] was “negative cooperativity independent of their overall affinity”.

With AEEMIYGEFAKKK [Rs2] the “cooperativity of peptide and AMP-PNP binding” value [3, 13] was “negative cooperativity independent of their overall affinity”.
